According to patent publication US7892350B2, “Sacrificial agents for fly ash concrete” (Boral Material Technologies Inc., priority 2003, dated 2011):

Experiments:
[1] = Adsorption/precipitation of SA or AEA in 10 wt % aqueous fly ash or cement slurries at pH 12.5; assay type: physicochemical; conditions: initial SA 3 mM
Method: Adsorption/Precipitation of Sacrificial Agents (SA) or Air Entrainment Agents (AEA) in 10 wt % Aqueous Fly Ash Slurries at pH 12.5:
(§1) The pH of the solutions were adjusted to 12.5 with NaOH.
Adsorption/Precipitation in FA or Cement Slurries: In this protocol, aqueous slurries containing 10 wt % FA or cement were prepared as described above, except that in this case, the cement was added directly into a solution of the SA or AEA in the following proportions: 3.0 g cement or FA, and 27 g of 3 mM sacrificial agent, or 27 g of 1050 mg/l AEA; the latter were prepared in the same way as in the precipitation test above. The residual (soluble) SA or AEA content in the solution was also determined by UV or COD.

[2] = Precipitation in slurry extract or leachate; assay type: physicochemical; conditions: pH 12.5, entries in parentheses
Method: as §1
Precipitation in slurry extract or leachate: To perform this test, FA or cement leachate were prepared in advance, by filtering two liters of a 10 wt % FA, or cement, slurry in 0.03N NaOH which had been left to stand under slow agitation for 30 min; 2.5 g of the filtrate solution was mixed with 22.5 g of the SA or AEA solution in a 50 ml polypropylene centrifuge tube; the latter was shaken vigorously in an orbital shaker (Eberbach Corporation) for 30 min at room temperature, centrifuged for 5 min and then the supernatant solution was filtered (0.45 μm). The SA or AEA content of the solution was determined using an Ultraviolet-Visible (UV) spectrometer or by COD (Chemical Oxygen Demand) measurement.
Entries in parentheses: % precipitation when reacted with solutions extracted from the fly ash slurries (Results in Table 5).

[3] = Paste air entrainment, Minimum air protocol
Method: Preparation of pastes: Pastes were prepared by pouring 400 g of cementitious powder in the 350-400 g of solution (water and additives) in a vessel (8.4 cm dia,×14.5 cm height) while gently stirring with a spatula; the exact quantity of water depends on the selected W/B ratio (see below); rapid hand mixing was continued for 1 minute, followed by intense stirring at 25° C. during 2 min using a hand-held mixer (BRAUN model MR400). The level of air entrained is dependent on the mode of utilisation of the mixer, namely the height of the mixer from the bottom of the vessel and the length of the mixing stroke; the following protocols were adopted.
Minimum air protocol: The BRAUN mixer is positioned at 1.0 inch from the bottom of the mixing vessel and the up-down motion of the mixer is limited to a 1.0 inch displacement; this provided ‘minimum air’ entrained air levels and is later referred to as ‘Minimum air protocol’ (Results reported in Table 6, col. 1 and Table 7).
Fluidity measurements: For all air entrainment measurements, the initial fluidity of the paste (without additives) was controlled using the ‘mini-slump’ procedure widely used for paste and grouts. In this protocol, a portion of the paste was transferred into the min-slump cone (a 2¼″ high, 1½″ bottom diameter, ¾″ top diameter cone); excess paste was skimmed-off with a straight; the cone was then raised and the spread diameter of the paste was recorded (average of two measurements). The fluidity is measured at 10 minutes after mixing. The paste is returned to the batch and reserved for subsequent AE measurements. The fluidity of the paste (without SA and AEA) is adjusted by changing the amount of water (water/cementitious ratio) which yields a spread diameter of 115±5 mm. The latter is monitored regularly.
Air entrainment measurements: For air entrainment measurements, a portion of the paste was transferred to overfill a Plexiglas cylinder (3¾ inches height, 2 inches interior diameter), which was then levelled flush to the top of the cylinder with a straight edge. The mass of the filled cylinder, minus the weight of the empty cylinder, is then recorded and used to calculate the amount of air according to the following formula: […]
This procedure was carried out at three times at 30 min. intervals (6, 36 and 66 min); the paste was let to stand at rest between measurements, and was stirred gently by hand for one minute prior to the subsequent air entrainment measurements.
Typical mixture compositions for air entrainment measurements in pastes containing a single additive using ‘Minimum air protocol’ (results shown in Table 6, col. 1): […]

[4] = Paste air entrainment, Maximum air protocol; conditions: for Air entrained at 66 min: Air 30 (0.0125 wt %)/X/ButOH=1/4/4, X = the labelled sulfonated SA
Method in brief: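 Pastes of 400 g cementitious powder in water plus additives, hand-mixed 1 min then mixer-stirred 2 min at 25 °C; water/binder ratio set so additive-free paste gives 115±5 mm mini-slump spread at 10 min. Air content calculated from mass of paste filling a fixed-volume cylinder at 6, 36 and 66 min, paste at rest between readings and hand-stirred 1 min beforehand.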

O=S(=O)([O-])c1ccc2ccccc2c1.[Na+] [NS, Sodium 2-Naphthalene sulfonate]
Adsorption (wt % Adsorbed) ([1]; 10 wt % PCA cement slurry, Air 30/Air 40 0.105 wt %): 3 wt % | Adsorption (wt % Adsorbed) ([1]; 10 wt % fly ash B1 (LOI 4.36%) slurry, Air 30/Air 40 0.105 wt %): 8 wt % | Adsorption (wt % Adsorbed) ([1]; 10 wt % fly ash C1, class C (LOI 1.62%) slurry, Air 30/Air 40 0.105 wt %): 70 wt % | Adsorption (wt % Adsorbed) ([1]; 10 wt % fly ash C2 (LOI 3.32%) slurry): 5 wt % | Adsorption (wt % Adsorbed) ([1]; 10 wt % fly ash D, class C (LOI […]) slurry, Air 30/Air 40 0.105 wt %): 59 wt % | Adsorption (wt % Adsorbed) ([1]; 10 wt % fly ash M1 (LOI […]) slurry, Air 30/Air 40 0.105 wt %): 11 wt % | Adsorption (wt % Adsorbed) ([1]; 10 wt % fly ash M2 (LOI 5.34%) slurry, Air 30/Air 40 0.105 wt %): 8 wt % | Adsorption (wt % Adsorbed) ([1]; 10 wt % fly ash M3 (LOI 11.33%) slurry, Air 30/Air 40 0.105 wt %): 10 wt % | Adsorption (wt % Adsorbed) ([1]; 10 wt % fly ash N (LOI 0.30%) slurry): 5 wt % | Adsorption (wt % Adsorbed) ([1]; 10 wt % fly ash R (LOI […]) slurry, Air 30/Air 40 0.105 wt %): 24 wt % | Precipitation (wt % precipitated) ([2]; solution extracted from 10 wt % PCA cement slurry): 1 wt % | Precipitation (wt % precipitated) ([2]; solution extracted from 10 wt % fly ash B1 (LOI 4.36%) slurry): 0 wt % | Precipitation (wt % precipitated) ([2]; solution extracted from 10 wt % fly ash C1, class C (LOI 1.62%) slurry): 10 wt % | Precipitation (wt % precipitated) ([2]; solution extracted from 10 wt % fly ash C2 (LOI 3.32%) slurry): 0 wt % | Precipitation (wt % precipitated) ([2]; solution extracted from 10 wt % fly ash D, class C (LOI […]) slurry): 1 wt % | Precipitation (wt % precipitated) ([2]; solution extracted from 10 wt % fly ash M1 (LOI […]) slurry): 0 wt % | Precipitation (wt % precipitated) ([2]; solution extracted from 10 wt % fly ash M2 (LOI 5.34%) slurry): 0 wt % | Precipitation (wt % precipitated) ([2]; solution extracted from 10 wt % fly ash M3 (LOI 11.33%) slurry): 0 wt % | Precipitation (wt % precipitated) ([2]; solution extracted from 10 wt % fly ash N (LOI 0.30%) slurry): 0 wt % | Precipitation (wt % precipitated) ([2]; solution extracted from 10 wt % fly ash R (LOI […]) slurry): 0 wt % | Air entrained ([3]; 50:50 fly ash B1 (LOI 4.36%):PCA paste, 0.1 wt % Air 30 alone or with 0.05 wt % of the SA): 4 vol % | Air entrained ([3]; 50:50 fly ash C1 (LOI 1.62%):PCA paste, 0.1 wt % Air 30 alone or with 0.05 wt % of the SA): 12 vol % | Air entrained ([3]; 50:50 fly ash D (LOI […]):PCA paste, 0.1 wt % Air 30 alone or with 0.05 wt % of the SA): 6 vol % | Air entrained ([3]; 50:50 fly ash M1 (LOI […]):PCA paste, 0.1 wt % Air 30 alone or with 0.05 wt % of the SA): 4 vol % | Air entrained ([3]; 50:50 fly ash M2 (LOI 5.34%):PCA paste, 0.1 wt % Air 30 alone or with 0.05 wt % of the SA): 3 vol % | Air entrained ([3]; 50:50 fly ash M3 (LOI 11.33%):PCA paste, 0.1 wt % Air 30 alone or with 0.05 wt % of the SA): 4 vol % | Air entrained ([3]; 50:50 fly ash R (LOI […]):PCA paste, 0.1 wt % Air 30 alone or with 0.05 wt % of the SA): 6 vol % | Air entrained ([3]; PCA cement paste, 0.1% SA or AEA alone, Minimum air protocol): 0 vol % | Average of air entrained ([3]; over the fly ash:PCA pastes of Table 7, 0.1 wt % Air 30 alone or with 0.05 wt % of the SA): 5% | Air entrained at 66 min ([4]; 50:50 fly ash B1 (LOI 4.36%):PCA paste): 7 vol % | Air entrained at 66 min ([4]; 50:50 fly ash D (LOI […]):PCA paste): 18 vol % | Air entrained at 66 min ([4]; 50:50 fly ash M2 (LOI 5.34%):PCA paste): 5 vol % | Air entrained ([4]; PCA cement paste, 0.0125% SA or AEA alone, Maximum air protocol): 2 vol % | Air entrained at 66 min ([4]; PCA paste, no fly ash): 13 vol %
